Experimental data taken from the supplement of paper PMC13207355.

Key:
Conditions in all cases: exposure time: 72 h
[1] = tested on: E13 (patient-derived glioblastoma stem cells of classical subtype); test: surviving fraction (nuclei count normalised to DMSO); higher = more cells surviving (less toxic)
[2] = tested on: E31 (patient-derived glioblastoma stem cells of proneural subtype); test: as above
[3] = tested on: E57 (patient-derived glioblastoma stem cells of mesenchymal subtype); test: as above
[4] = tested on: FT3469 (normal neural stem cell line); test: as above
[5] = tested on: E28 (patient-derived glioblastoma stem cells of classical subtype); test: as above
[6] = tested on: E21 (patient-derived glioblastoma stem cells of mesenchymal subtype); test: as above
[7] = tested on: E34 (patient-derived glioblastoma stem cells of proneural subtype); test: as above
[8] = tested on: E13; test: phenotypic distance (Euclidean, principal components) from DMSO controls (arbitrary units); higher = stronger morphological change
[9] = tested on: E31; test: as above
[10] = tested on: E57; test: as above
[11] = tested on: FT3469; test: as above
[12] = tested on: E28; test: as above
[13] = tested on: E21; test: as above
[14] = tested on: E34; test: as above
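Throughout, for phenotypic distance (Euclidean, principal components) from DMSO controls: cell Painting imaging in 384-well plates, CellProfiler features reduced to at least 20 principal components, Euclidean distance versus same-plate DMSO vehicle wells (0.1% v/v), median over six images per well.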
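Throughout, for surviving fraction (nuclei count normalised to DMSO): nuclei counted by high-content imaging of Hoechst-stained cells in laminin-coated 384-well plates, relative to 0.1% DMSO vehicle wells, with staurosporine as cell-death control.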

O=C(O)c1ccc(-c2c[nH]c3ncc(-c4ccccc4)cc23)cc1C1CCCC1
Conditions	phenotypic distance	surviving fraction
[1], 4.11523 nM	–	0.996
[1], 12.34567901 nM	–	0.826
[1], 37.037 nM	–	0.899
[1], 111.1111111 nM	–	0.825
[1], 333.333 nM	–	0.72
[1], 1000 nM	–	0.588
[1], 3000 nM	–	0.413
[2], 4.11523 nM	–	1.04
[2], 12.34567901 nM	–	1.01
[2], 37.037 nM	–	0.885
[2], 111.1111111 nM	–	1.14
[2], 333.333 nM	–	0.798
[2], 1000 nM	–	1.04
[2], 3000 nM	–	0.688
[3], 4.11523 nM	–	0.932
[3], 12.34567901 nM	–	0.905
[3], 37.037 nM	–	0.923
[3], 111.1111111 nM	–	0.916
[3], 333.333 nM	–	0.835
[3], 1000 nM	–	0.6
[3], 3000 nM	–	0.35
[4], 4.11523 nM	–	0.822
[4], 12.34567901 nM	–	0.943
[4], 37.037 nM	–	0.972
[4], 111.1111111 nM	–	0.987
[4], 333.333 nM	–	0.813
[4], 1000 nM	–	0.996
[4], 3000 nM	–	0.766
[5], 4.11523 nM	–	0.956
[5], 12.34567901 nM	–	0.911
[5], 37.037 nM	–	0.873
[5], 111.1111111 nM	–	1.01
[5], 333.333 nM	–	0.807
[5], 1000 nM	–	0.755
[5], 3000 nM	–	0.51
[6], 4.11523 nM	–	0.933
[6], 12.34567901 nM	–	0.832
[6], 37.037 nM	–	0.918
[6], 111.1111111 nM	–	0.783
[6], 333.333 nM	–	0.803
[6], 1000 nM	–	0.681
[6], 3000 nM	–	0.52
[7], 4.11523 nM	–	0.913
[7], 12.34567901 nM	–	1.06
[7], 37.037 nM	–	0.86
[7], 111.1111111 nM	–	0.909
[7], 333.333 nM	–	0.805
[7], 1000 nM	–	0.714
[7], 3000 nM	–	0.527
[8], 4.11523 nM	3.86	–
[8], 12.34567901 nM	2.38	–
[8], 37.037 nM	0.747	–
[8], 111.1111111 nM	0.749	–
[8], 333.333 nM	1	–
[8], 1000 nM	2.77	–
[8], 3000 nM	5.39	–
[9], 4.11523 nM	0.443	–
[9], 12.34567901 nM	0.638	–
[9], 37.037 nM	0.948	–
[9], 111.1111111 nM	0.662	–
[9], 333.333 nM	1.08	–
[9], 1000 nM	1.15	–
[9], 3000 nM	1.91	–
[10], 4.11523 nM	0.657	–
[10], 12.34567901 nM	0.719	–
[10], 37.037 nM	0.687	–
[10], 111.1111111 nM	1.04	–
[10], 333.333 nM	0.598	–
[10], 1000 nM	1.78	–
[10], 3000 nM	4.38	–
[11], 4.11523 nM	0.839	–
[11], 12.34567901 nM	1.18	–
[11], 37.037 nM	0.627	–
[11], 111.1111111 nM	1.11	–
[11], 333.333 nM	0.969	–
[11], 1000 nM	1.71	–
[11], 3000 nM	2.49	–
[12], 4.11523 nM	0.635	–
[12], 12.34567901 nM	0.785	–
[12], 37.037 nM	0.418	–
[12], 111.1111111 nM	0.61	–
[12], 333.333 nM	0.687	–
[12], 1000 nM	1.26	–
[12], 3000 nM	2.4	–
[13], 4.11523 nM	0.656	–
[13], 12.34567901 nM	0.914	–
[13], 37.037 nM	0.757	–
[13], 111.1111111 nM	0.832	–
[13], 333.333 nM	0.828	–
[13], 1000 nM	1.75	–
[13], 3000 nM	4.49	–
[14], 4.11523 nM	1.13	–
[14], 12.34567901 nM	0.775	–
[14], 37.037 nM	0.829	–
[14], 111.1111111 nM	1.03	–
[14], 333.333 nM	1.12	–
[14], 1000 nM	2.9	–
[14], 3000 nM	4.8	–

OC[C@H]1NC[C@H](O)[C@@H](O)[C@@H]1O [1-Deoxynojirimycin]
Conditions	phenotypic distance	surviving fraction
[1], 4.1 nM	–	0.97
[1], 12.3 nM	–	0.945
[1], 37 nM	–	0.8513
[1], 111.1 nM	–	0.99
[1], 333.3 nM	–	1.01
[1], 1000 nM	–	1.01
[1], 3000 nM	–	0.963
[2], 4.1 nM	–	0.951
[2], 12.3 nM	–	0.95
[2], 37 nM	–	0.979
[2], 111.1 nM	–	0.918
[2], 333.3 nM	–	0.988
[2], 1000 nM	–	1.03
[2], 3000 nM	–	0.988
[3], 4.1 nM	–	0.9939
[3], 12.3 nM	–	0.961
[3], 37 nM	–	0.936
[3], 111.1 nM	–	0.955
[3], 333.3 nM	–	1.03
[3], 1000 nM	–	0.978
[3], 3000 nM	–	0.9675
[4], 4.1 nM	–	0.965
[4], 12.3 nM	–	0.951
[4], 37 nM	–	0.953
[4], 111.1 nM	–	1.02
[4], 333.3 nM	–	0.889
[4], 1000 nM	–	1.04
[4], 3000 nM	–	0.9
[5], 4.1 nM	–	1.02
[5], 12.3 nM	–	1.01
[5], 37 nM	–	1.009
[5], 111.1 nM	–	1.05
[5], 333.3 nM	–	1.04
[5], 1000 nM	–	0.997
[5], 3000 nM	–	1.02
[6], 4.1 nM	–	0.994
[6], 12.3 nM	–	1.02
[6], 37 nM	–	0.9516
[6], 111.1 nM	–	0.977
[6], 333.3 nM	–	1.04
[6], 1000 nM	–	0.995
[6], 3000 nM	–	0.914
[7], 4.1 nM	–	1.02
[7], 12.3 nM	–	0.878
[7], 37 nM	–	0.9719
[7], 111.1 nM	–	0.948
[7], 333.3 nM	–	0.937
[7], 1000 nM	–	0.997
[7], 3000 nM	–	1.02
[8], 4.1 nM	0.633	–
[8], 12.3 nM	0.606	–
[8], 37 nM	0.865	–
[8], 111.1 nM	0.487	–
[8], 333.3 nM	0.742	–
[8], 1000 nM	0.501	–
[8], 3000 nM	0.63	–
[9], 4.1 nM	0.644	–
[9], 12.3 nM	0.558	–
[9], 37 nM	0.579	–
[9], 111.1 nM	0.597	–
[9], 333.3 nM	0.552	–
[9], 1000 nM	0.479	–
[9], 3000 nM	0.614	–
[10], 4.1 nM	0.636	–
[10], 12.3 nM	0.609	–
[10], 37 nM	0.696	–
[10], 111.1 nM	0.505	–
[10], 333.3 nM	0.518	–
[10], 1000 nM	0.442	–
[10], 3000 nM	0.63	–
[11], 4.1 nM	0.939	–
[11], 12.3 nM	0.685	–
[11], 37 nM	0.554	–
[11], 111.1 nM	0.511	–
[11], 333.3 nM	0.634	–
[11], 1000 nM	0.682	–
[11], 3000 nM	0.673	–
[12], 4.1 nM	1.27	–
[12], 12.3 nM	1.73	–
[12], 37 nM	0.489	–
[12], 111.1 nM	0.561	–
[12], 333.3 nM	0.769	–
[12], 1000 nM	0.642	–
[12], 3000 nM	0.664	–
[13], 4.1 nM	0.765	–
[13], 12.3 nM	0.361	–
[13], 37 nM	0.681	–
[13], 111.1 nM	0.62	–
[13], 333.3 nM	0.677	–
[13], 1000 nM	0.652	–
[13], 3000 nM	0.534	–
[14], 4.1 nM	1.35	–
[14], 12.3 nM	0.664	–
[14], 37 nM	0.60231	–
[14], 111.1 nM	0.433	–
[14], 333.3 nM	0.758	–
[14], 1000 nM	0.619	–
[14], 3000 nM	0.541	–
